From EP0191624A2, “Gold-purine antitumor agents” (ENGELHARD CORPORATION, priority 1985, dated 1986)
“And” between values parts separate entries of the source, which are not always exact repeats. Equal values may be shown once.

Key:
S180 ascites = test: Screening for anti-tumor activity against S180 ascites (increase in life span); format: in vivo, female CFW Swiss mice; conditions: for %ILS: injected day 1; for 30-Day Survivors: survivors/mice in set
Description: The compounds were evaluated for anti-tumor activity against S180 ascites in female CFW Swiss mice by the following procedure: • CFW mice, averaging 20g, are immediately inspected and placed in newly prepared cages. On day zero the mice are inoculated with 0.2 ml. of a freshly prepared saline suspension (0.15 M NaCl) containing 1 x 10^7 tumor cells/ ml, or a total of 2 x 10^6 cells. This inoculum is freshly prepared using "transfer" mice which have been injected with tumor cells the previous week. This inoculum is the end-product of a series of steps which involves (1) the removal of the cells from the peritoneal cavity of the sacrificed transfer mouse, (2) alternate centrifugation- washing (2-3 times with cold saline) to remove occasional blood and other undesirable components, and finally (3) dilution (1:3) of the packed cell volume with saline (the final centrifugation being carried out at 1,000 rpm for 2 min.). A cell count is made on a 2,000-fold dilution of this 1:3 suspension by means of a Coulter Counter. A final dilution to 1 x 10^7 cells/ml. is made based on the averaged count. On day 1, solutions of the test compounds are prepared and the mice injected, with each mouse of a set of six being injected with the same test compound at the same dose level.
Also, on this day, two types of controls (6 mice/se are employed: (1) Normal (1 set): 0.5 ml. of the solvent medium used for the test compound, and (2) Positive control (1 set): a known anti-tumor agent (cis-(Pt(NH3)2Cl2] in saline at 8 mg./kg.), used to test the response of the biological system.
ILS values above 50% represent significant activity; those above 75% represent excellent activity.

Solubility in water = format: physicochemical
[1] = Stability in aqueous solution with respect to reduction; format: physicochemical
[2] = C. Dragulescu et al, Int. Coord. Chem. Conf. XVI 1,99 (1974); cited from earlier work
[3] = positive control in saline at 8 mg./kg., run alongside each test compound

N.N.[Cl][Pt][Cl] [Control, cis-diamminedichloroplatinum(II), reference compound]
Control 30-Day Survivors (S180 ascites; [3]): 3/6 and 4/5
Control %ILS (S180 ascites; [3]): 80% and 96%

Cl.Cn1c(=O)c2c(ncn2CCCl)n(C)c1=O.Cn1c(=O)c2c(ncn2CCCl)n(C)c1=O.[Cl][Au]([Cl])[Cl] [Example 1, [AuCl3(7-chloroethyl-theophylline)](7-chloro-ethyltheophylline)·HCl]
soluble in water (Solubility in water): at least 64 mg/5 ml
%ILS (S180 ascites; dose 5 mg/kg): 8%
30-Day Survivors (S180 ascites; dose 5 mg/kg): 0/6
%ILS (S180 ascites; dose 10 mg/kg): -3%
30-Day Survivors (S180 ascites; dose 10 mg/kg): 0/6
%ILS (S180 ascites; dose 20 mg/kg): 14%
30-Day Survivors (S180 ascites; dose 20 mg/kg): 0/6
%ILS (S180 ascites; dose 40 mg/kg): 9%
30-Day Survivors (S180 ascites; dose 40 mg/kg): 0/6
%ILS (S180 ascites; dose 80 mg/kg): 79%
30-Day Survivors (S180 ascites; dose 80 mg/kg): 3/6
%ILS (S180 ascites; dose 160 mg/kg): 3%
30-Day Survivors (S180 ascites; dose 160 mg/kg): 1/6
stable, at least with respect to reduction, in solution [1]: ca. 24 hours

Cl.Cn1c(=O)c2c(ncn2CC(O)CO)n(C)c1=O.Cn1c(=O)c2c(ncn2CC(O)CO)n(C)c1=O.[Cl][Au]([Cl])[Cl] (stereo not shown) [Example 2, [AuCl3(7-(2,3-dihydroxy-propyl)theophylline)] (7-(2,3-dihydroxypropyl)theophylline)·HCl]
soluble in water (Solubility in water): at least 64 mg/5 ml
%ILS (S180 ascites; dose 10 mg/kg): -13%
30-Day Survivors (S180 ascites; dose 10 mg/kg): 0/6
%ILS (S180 ascites; dose 20 mg/kg): -11%
30-Day Survivors (S180 ascites; dose 20 mg/kg): 0/6
%ILS (S180 ascites; dose 40 mg/kg): -3%
30-Day Survivors (S180 ascites; dose 40 mg/kg): 0/6
%ILS (S180 ascites; dose 80 mg/kg): 69%
30-Day Survivors (S180 ascites; dose 80 mg/kg): 2/6
%ILS (S180 ascites; dose 160 mg/kg): 34%
30-Day Survivors (S180 ascites; dose 160 mg/kg): 1/6
%ILS (S180 ascites; dose 320 mg/kg): -62%
30-Day Survivors (S180 ascites; dose 320 mg/kg): 0/6
stable, at least with respect to reduction, in solution [1]: ca. 24 hours

[Au(III)(5-diazauracil)2Cl2]Cl
antitumor activity in mice [2]: possess antitumor activity
